Source: patent US8900819B2, “ADRB2 cancer markers” (The Regents of The University of Michigan, priority 2007, dated 2014)
Entries after “also recorded” stand apart in the source; their conditions may differ.

Tests used:
ADRB2 transcript [1] = assay: qRT-PCR of ADRB2 transcript after DZNep in breast and prostate cancer cell lines; type: cell-based; conditions: 5 μM, 48 hrs; batch of breast and prostate cancer cell lines; FIG. 3K
Protocol: (§1) The ADRB2 antagonist ICI 118,551, and agonist Isoproterenol was purchased from Sigma-Aldrich, and used at a working concentration of 1 μM, 10 μM or 100 μM. SAHA was obtained from Biovision Inc, dissolved in DMSO, and used at a working concentration of 1 μM. DZNep was used at 5 μM and cells were treated for 48 hrs before being harvested for RNA isolation.
(§2) SYBR green qRT-PCR was carried out according to standard protocols in triplicates (Kleer et al., 2003, supra). Samples were normalized to the mRNA level of the house-keeping gene GAPDH or RPL13A.

RWPE cells = assay: Modified basement membrane invasion assay in RWPE cells; type: cell-based; conditions: noninvasive RWPE cells treated with 0, 1, or 10 μM; FIG. 4C
Protocol: as §1
(§3) Basement membrane matrix invasion assay was essentially performed as previously described (Kleer et al., 2003, supra). Briefly, warm serum free medium was mixed with Matrigel (Fisher Scientific) at 1:3 ratio, 300 μl of this Matrigel mixture was added into the center of each cell well inserts of the Chemicon 24-well plate (Chemicon), and allowed to solidify at room temperature for 1-2 hrs. Cells were trypsinized and resuspended in serum-free medium. Approximately 1×10^5 cells in 300 μl of serum free medium were placed into each insert, the upper chamber, whereas 500 μl of full medium was added to the lower chamber. Cells were treated with corresponding drug for 10 min prior to be placed into invasion chambers. Cells were then grown in the upper chamber for 48 hrs. The non-invading cells inside the insert were removed and the insert were stained for invaded cells on the lower surface of the membrane. The stained cells were then counted using a microscope and images taken.

[2] = system: RWPE benign prostate epithelial cells; assay: Immunoblot of EMT biomarkers and cell adhesion molecules in RWPE cells; type: cell-based; conditions: FIG. 4F
Protocol: as §1
Cell extracts were separated by SDS-PAGE and blotted onto nitrocelllular membranes, immunoblotted with antibodies and visualized using ECL-plus (Amercham Bioscience). The following antibodies were used: ADRB2 (Abcam), β-tubulin (Santa Cruz), EZH2 (BD Bioscience). The anti-ADRB2 antibody usually gives a major band of predicted size (46.5 kDa). However, some lots of this antibody may give an extra, weaker band about 5 kDa above the predicted band.

[3] = system: DU145 prostate cancer cells; assay: Modified basement membrane invasion assay in DU145 cells; type: cell-based
Protocol: as §3, with “The ADRB2 antagonist ICI 118,551, and agonist Isoproterenol was purchased from Sigma-Aldrich, and used at a working concentration of 1 μM, 10 μM or 100 μM. SAHA was obtained from Biovision Inc, dissolved in DMSO, and used at a working concentration of 1 μM. DZNep was used at 5 μM and cells were treated for 48 hrs before being harvested for RNA isolation. Basement” for “Basement”

RWPE-shADRB2 cells = assay: Modified basement membrane invasion assay in RWPE-shADRB2 cells; type: cell-based; conditions: RWPE-shADRB2 cells treated with 0, 10, or 100 μM
Protocol: The ADRB2 antagonist ICI 118,551, and agonist Isoproterenol was purchased from Sigma-Aldrich, and used at a working concentration of 1 μM, 10 μM or 100 μM. SAHA was obtained from Biovision Inc, dissolved in DMSO, and used at a working concentration of 1 μM. DZNep was used at 5 μM and cells were treated for 48 hrs before being harvested for RNA isolation. EZH2 adenovirus infection and RNA interference were performed as described (Kleer et al., Proc Natl Acad Sci USA 100, 11606-11611 2003; Varambally et al., Cancer Cell 8, 393-406 2002). RWPE cells with stable ADRB2 knockdown were generated by transfection with ADRB2 shRNA constructs (Open Biosystems, Huntsville, Ala.) and selection with puromycin. DU145 cell lines with stable EZH2 knockdown were generated using EZH2 shRNA expressing constructs (Open Biosystems). Basement membrane matrix invasion assay was essentially performed as previously described (Kleer et al., 2003, supra). Briefly, warm serum free medium was mixed with Matrigel (Fisher Scientific) at 1:3 ratio, 300 μl of this Matrigel mixture was added into the center of each cell well inserts of the Chemicon 24-well plate (Chemicon), and allowed to solidify at room temperature for 1-2 hrs. Cells were trypsinized and resuspended in serum-free medium. […] The stained cells were then counted using a microscope and images taken.

[4] = system: DU145 prostate cancer cells; assay: Murine prostate tumor xenograft model (DU145); type: in vivo; conditions: nude mice, daily intraperitoneal injection 400 μg/day or 800 ug/day vs PBS; FIG. 5B
Protocol: All procedures involving mice were approved by the University Committee on Use and Care of Animals of the University of Michigan. Male nude athymic BALB/c nu/nu mice 5-week-old (Charles River Laboratory, Wilmington, Mass.) were used for examining the tumorigenicity. […] To evaluate the role of β-adrenergic signaling in tumor formation, DU145 cell was propagated, and treated with PBS or 10 μM Isoproterenol at 24 hrs prior to harvest. Cells were then harvested and suspended in a 0.1 ml PBS with or without treatment of 10 μM Isoproterenol. A total of 15 mice (n=5 per group) were each implanted with 5×10^6 DU145 cells into the dorsal flank subcutaneously. Treatment started 24 hrs after implantation. Each group was administered daily by intraperitoneal injection with either PBS or Isoproterenol (at 400 μg/day or 800 μg/day). Tumor size was measured every week and tumor volumes were estimated using the formula (n/6)(L×W2), where L=length of tumor and W=width.

ADRB2 promoter [5] = assay: ChIP of ectopic Myc-EZH2 at the ADRB2 promoter in H16N2 cells; type: cell-based, human; conditions: H16N2 cells with EZH2 adenovirus; FIG. 3F
Protocol: ChIP was performed according to published protocols with slight modifications (Boyd et al., Proc Natl Acad Sci USA 95, 13887-13892 1998). Briefly, formaldehyde was added directly to the cultured cells to a final concentration of 1%. For metastasis tissues, samples were first chopped into small pieces with a razor blade and transferred into 5-10 ml PBS before adding formaldehyde. Cells were rotated at room temperature for 10 min. The crosslinking was stopped by 1/20V of 2.5M Glycine and the cells were washed with 1×PBS and harvested in 1×PBS with proteinase inhibitors. Metastasis tissue samples were further disaggregated using a tissue homogenizer. The cells were then pelleted and resuspended in cell lysis buffer containing protease inhibitors. After incubation in cell lysis buffer for 10 min, the samples were pelleted, resuspended in nuclei lysis buffer and sonicated to chromatins with an average size of 500 bp. The chromatins were precleared using Salmon sperm DNA/Protein A Agarose-50% flurry and incubated with specific antibodies overnight. Antibodies used in this study include EZH2 (BD Bioscience), EED (Upstate), SUZ12 (Abeam), trimethylated H3K27 (Upstate), Acetyl-H3K27 (Upstate), Myc (Abeam), and IgG control (Santa Cruz). The next day, the antibody-bound chromatin was pooled down using protein A/agarose, washed extensively, and reverse-crosslinked. […]

ADRB2 promoter [6] = assay: ChIP of endogenous PRC2 complex, 3mH3K27 and acetylated H3 at the ADRB2 promoter; type: cell-based; conditions: FIG. 3H-I
Protocol: ChIP was performed according to published protocols with slight modifications (Boyd et al., Proc Natl Acad Sci USA 95, 13887-13892 1998). Briefly, formaldehyde was added directly to the cultured cells to a final concentration of 1%. For metastasis tissues, samples were first chopped into small pieces with a razor blade and transferred into 5-10 ml PBS before adding formaldehyde. Cells were rotated at room temperature for 10 min. The crosslinking was stopped by 1/20V of 2.5M Glycine and the cells were washed with 1×PBS and harvested in 1×PBS with proteinase inhibitors. Metastasis tissue samples were further disaggregated using a tissue homogenizer. The cells were then pelleted and resuspended in cell lysis buffer containing protease inhibitors. After incubation in cell lysis buffer for 10 min, the samples were pelleted, resuspended in nuclei lysis buffer and sonicated to chromatins with an average size of 500 bp. The chromatins were precleared using Salmon sperm DNA/Protein A Agarose-50% flurry and incubated with specific antibodies overnight. […] The next day, the antibody-bound chromatin was pooled down using protein A/agarose, washed extensively, and reverse-crosslinked. Immunoprecipitated DNA and whole cell extract DNA were purified by treatment with RNase A, proteinase K and purified using Qiaquick PCR purification kit (Qiagen, Valencia, Calif.). The purified DNA was used for PCR analysis of enrichment. Purified DNA was blunted and ligated to linkers and amplified by a two-stage ligation-mediated PCR (LM-PCR) protocol (Lee et al., Cell 125, 301-313 2006) to generate enough chromatins for PCR analysis of multiple target genes or for hybridization to promoter arrays. Equal amount of amplified input and ChIP-enriched chromatins were subjected to PCR testing for enrichment of target gene promoters. For ChIP and qRT-PCR analysis, DU145 cells were treated with 0.5 μM of SAHA for 30 min, 2, 6, 12 and 24 hrs prior to harvest.

ADRB2 transcript [7] = assay: qRT-PCR of ADRB2 transcript after SAHA time course; type: cell-based; conditions: time course of SAHA treatment; FIG. 3J
Protocol: For ChIP and qRT-PCR analysis, DU145 cells were treated with 0.5 μM of SAHA for 30 min, 2, 6, 12 and 24 hrs prior to harvest.
as §2

Nc1nccc2c1ncn2C1C=C(CO)C(O)C1O (centres unmarked) [DZNep]
ADRB2 transcript (ADRB2 transcript [1]): Marked up-regulation; also recorded: strong induction (de-repression) of ADRB2 in all cell lines tested

Cc1ccc(OCC(O)C(C)NC(C)C)c2c1CCC2 (centres unmarked) [ICI 118,551]
cell invasion (RWPE cells): leads to increased invasion; also recorded: significantly increased invasion
expression of EMT biomarkers and cell adhesion molecules [2]: regulates the expression of EMT biomarkers and cell adhesion molecules; also recorded: recaptured the expressional changes in RWPE-shADRB2 cells

CC(C)NCC(O)c1ccc(O)c(O)c1 (centres unmarked) [Isoproterenol]
cell invasion ([3]; DU145 cells treated with 0, 10, or 100 μM): inhibits cell invasion
cell invasion ([3]; DU145 cells treated with 0, 10, or 100 μM, listed as isoproterenol): significantly reduced invasion
cell invasion ([3]; PCA model system, cell line not given): decreased cell invasion
cell invasion (RWPE-shADRB2 cells): inhibits cell invasion
cell invasion (RWPE-shADRB2 cells; listed as isoproterenol): significantly reduced invasion
xenograft tumor size [4]: significantly (two-sample t-test, p=0.006) smaller tumors

O=C(CCCCCCC(=O)Nc1ccccc1)NO [SAHA]
recruitment of Myc-EZH2 to the ADRB2 promoter (ADRB2 promoter [5]): this binding being sensitive to SAHA
H3K27 trimethylation at the ADRB2 promoter (ADRB2 promoter [6]): marked reduction of PRC2 binding and consequent H3K27 trimethylation
acetylated H3 at the ADRB2 promoter (ADRB2 promoter [6]): accumulation of acetylated H3
PRC2 binding at the ADRB2 promoter (ADRB2 promoter [6]; endogenous PRC2): sensitive to the HDAC inhibitor SAHA; also recorded: marked reduction of PRC2 binding
ADRB2 transcript (ADRB2 transcript [7]): up-regulated; also recorded: upregulation of ADRB2 transcripts
